Measured values from patent publication US20250228879A1, “METHOD AND COMPOSITION FOR CONTROLLING ACNE USING RHAMNOLIPIDS” (Stepan Company, priority 2022, published 2025).
Marks after values point to notes of the source that are not given here.

Columns and labels:
C. acnes = experiment: Labskin efficacy of rhamnolipids compared to salicylic acid and benzoyl peroxide (Example 5); format: cell-based, Cutibacterium acnes
Description: A study was conducted to compare the efficacy of the rhamnolipid mixture of the present technology with salicylic acid and benzoyl peroxide, two common over-the-counter anti-acne actives. The samples containing salicylic acid and benzoyl peroxide were additionally mixed using a tip sonicator to ensure complete dissolving or adequeate distribution of the active.
The skin analog substrate (Labskin) was prepared as described in Example 4. The C. acnes microorganism was cultured as described in Example 4, and each Labskin unit was inoculated as described in Example 4. The Labskin units were incubated at 37° C. for 24 hours, and after 24 hours, were treated with 11 microliters of control (dPBS), vehicle, or test item. All Labskin units were then incubated at 37° C. for 24 hours, after which biopsy samples of 8 mm in diameter were aseptically removed from the center of each Labskin unit and viable microbial numbers were assayed by recovery on appropriate culture medium.
Technical replicate counts obtained from selective solid media were averaged and used to calculate the colony forming units per square cm (CFU cm^−2). The enumeration of C. acnes for the control, vehicle, and test samples is shown graphically in FIG. 4.
The Log10 difference between the dPBS control and the vehicle and test samples was calculated as described in Example 4, and the Logio difference results are shown graphically in FIG. 5.

C. acnes ATCC 6919 = experiment: Efficacy against C. acnes, aqueous test samples (Example 1); format: cell-based, Cutibacterium acnes; details: Tested Conc. 0.3%, pH 2.7
Description: A study was conducted to determine the antimicrobial activity of a rhamnolipid mixture of the present technology alone against C. acnes, available from American Type Culture Collection (ATCC), Manassas, VA as ATCC 6919. Test samples were prepared by mixing 6.0% by weight of the rhamnolipid mixture into an aqueous base. Two samples were prepared, one sample using a rhamnolipid mixture processed by a non-solvent purification process, and the other sample using a rhamnolipid mixture processed by a solvent extraction process. The rhamnolipid mixtures in each sample comprise a weight ratio of mono-rhamnolipids to di-rhamnolipids in the range of 43:57 to 45:55.

[1] = system: Cutibacterium acnes (ATCC #6919); experiment: Time-dependency comparative testing, flow cytometry viability (Example 6); format: cell-based
Description: A study was conducted to compare the time-dependent efficacy of a rhamnolipid mixture of the present technology (Example 6 Composition), a commercially available rhamnolipid product (Comparative Composition), and salicylic acid against Cutibacterium acnes (ATCC #6919). […] The Comparative Composition comprised a mixture of rhamnolipids having a mono-rhamnolipid: di-rhamnolipid ratio of about 4:96 Test samples were prepared by diluting the rhamnolipids and the salicylic acid in sterile water. […] The concentrations of salicylic acid actives in the test samples were 0.03 wt %, 0.1 wt %, and 0.3 wt %. Prior to initiation of the study, samples were sufficiently pre-reduced to remove oxygen by using an indirect atmospheric sequestering of oxygen using hydrogen reaction over palladium catalyst. […] The sample aliquots were neutralized by dilution in an oxygen-reducing buffer containing the flow cytometry dyes, SYTO 9 and Propidium Iodide. Samples were analyzed using flow cytometry where cells were characterized by morphology and viability in comparison to a deionized water control.

[2] = water at 25° C.; cited from earlier work
[3] = 15 min Exposure, Tested Conc. 0.03%
[4] = 15 min Exposure, Tested Conc. 0.10%
[5] = 15 min Exposure, Tested Conc. 0.30%
[6] = 60 min Exposure, Tested Conc. 0.03%
[7] = 60 min Exposure, Tested Conc. 0.10%
[8] = 60 min Exposure, Tested Conc. 0.30%

O=C(OOC(=O)c1ccccc1)c1ccccc1 [benzoyl peroxide]
Log10 difference of C. acnes vs dPBS control (FIG. 5) (C. acnes; benzoyl peroxide alone (5% and 2.5% w/w) in 20% w/w Tween in dPBS): significant decrease in the recovered population of C. acnes

O=C(O)c1ccccc1O [Salicylic acid in DI Water, salicylic acid]
Reduction % (C. acnes ATCC 6919; 1 h Exposure): >99.997%
Reduction Log10 CFU/mL (C. acnes ATCC 6919; 1 h Exposure): >4.6 Log10 CFU/mL
Reduction % (C. acnes ATCC 6919; 24 h Exposure): >99.995%
Reduction Log10 CFU/mL (C. acnes ATCC 6919; 24 h Exposure): >4.3 Log10 CFU/mL
Log10 cells/mL Reduction [1, 3]: 0.10 Log10 cells/mL
Percent Reduction [1, 3]: 20.6%
Log10 cells/mL Reduction [1, 4]: 0.10 Log10 cells/mL
Percent Reduction [1, 4]: 20.6%
Log10 cells/mL Reduction [1, 5]: 0.57 Log10 cells/mL
Percent Reduction [1, 5]: 73.2%
Log10 cells/mL Reduction [1, 6]: 0.35 Log10 cells/mL
Percent Reduction [1, 6]: 55.2%
Log10 cells/mL Reduction [1, 7]: 1.14 Log10 cells/mL
Percent Reduction [1, 7]: 92.8%
Log10 cells/mL Reduction [1, 8]: >2.30 Log10 cells/mL
Percent Reduction [1, 8]: >99.5%
solubility limit in water [2]: 0.3% *
Enumeration of C. acnes compared with dPBS control (FIG. 4) (C. acnes; 0.5% w/w in 20% w/w Tween in dPBS, Labskin, 24 hours): slight decrease in the average amount of C. acnes
Log10 difference of C. acnes vs dPBS control (FIG. 5) (C. acnes; 0.5% w/w salicylic acid in 20% w/w Tween in dPBS): moderate decrease in C. acnes recovered
Log10 difference of C. acnes vs dPBS control (FIG. 5) (C. acnes; 2% w/w salicylic acid in 20% w/w Tween in dPBS): noticeable decrease in the recovered population of C. acnes
